Laboratory results published in patent US20230406860A1, “HETEROCYCLIC SPIRO COMPOUNDS AND METHODS OF USE” (AMGEN INC., priority 2020, published 2023).
Read-outs that look alike come from different tables or passages of the source.

Experiments:
[1] = target: GDP-bound KRAS protein (aa 1-169), containing both G12C and C118A amino acid substitutions (Homo sapiens, UniProt P01116, C118A/G12C); experiment: Coupled nucleotide exchange assay (SOS-mediated, AlphaScreen); type: biochemical
Experimental: Coupled Nucleotide Exchange Assay:
For all subsequent steps, DTT was added to the reaction buffer at a final concentration of 1 mM. […] The assay plates were then read on a plate reader measuring luminescence signal. Signal intensity of compound-containing wells were normalized to DMSO control, and data were analyzed using a 4-parameter logistic model to calculate IC50 values.

[2] = system: A549 (human lung carcinoma) cells; experiment: Cell viability assay (CellTiter-Glo), A549; type: cell-based; conditions: 72 h
Experimental: (§1) MIA PaCa-2 (human pancreatic carcinoma; ATCC CRL-1420) or A549 (human lung carcinoma; ATCC CCL-185) cells were cultured in RPMI 1640 medium containing 10% fetal bovine serum and 1× penicillin/streptomycin/L-glutamine. Cells were seeded in 384-well plates at a density of 1.67E+04 cells/mL and incubated at 37° C., 5% CO2, overnight. Serially-diluted compound or DMSO was added to the cells, and plates were incubated at 37° C., 5% CO2 for 72 h. Cell viability was measured using a CellTiter-Glo® Luminescent Cell Viability Assay kit (Promega) according to the manufacturer's protocol. The luminescence signal of treated samples was normalized to DMSO control, and data were analyzed using a 4-parameter logistic model to calculate IC50 values.

[3] = system: MIA PaCa-2 (human pancreatic carcinoma) cells; experiment: Cell viability assay (CellTiter-Glo), MIA PaCa-2; type: cell-based; conditions: 72 h
Experimental: as §1

[4] = 2 h compound pre-incubation, read-out: Avg 2 h Coupled exchange IC50
[5] = 20 h compound pre-incubation (values marked * in Table 6), read-out: Avg 20 h Coupled exchange IC50

Chain of GDP-bound KRAS protein (aa 1-169), containing both G12C and C118A amino acid substitutions (P01116 1-169 isoform P01116-2 G12C/C118A): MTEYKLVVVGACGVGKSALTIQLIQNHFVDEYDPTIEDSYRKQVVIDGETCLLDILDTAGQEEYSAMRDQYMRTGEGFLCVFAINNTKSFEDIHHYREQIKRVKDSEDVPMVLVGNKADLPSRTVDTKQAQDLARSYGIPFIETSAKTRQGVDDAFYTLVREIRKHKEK

With C=CC(=O)N1CC2(CCN(c3nc4c(c(N[C@@H](CC(=O)NC)c5cccc(C#N)c5)n3)CCCC4)C2)C1 (single isomer, unassigned) [Example 1-21-1] the IC50 [1, 4] was 9.085 µM, the IC50 [2] was over 25 µM and the IC50 [3] was 10.5 µM.

C=CC(=O)N1CC2(CCN(c3nc4c(c(N[C@H](CC(=O)NC)c5cccc(C#N)c5)n3)CCCC4)C2)C1 (single isomer, unassigned) [Example 1-21-2] showed an IC50 [1, 4] of 129.95 µM, an IC50 [2] of over 25 µM and an IC50 [3] of 14 µM.

In the case of C=CC(=O)N1CC2(C[C@H](CO)N(c3nc4c(c(N[C@H](CC(=O)NC)CC(C)C)n3)CCCC4)C2)C1 (single isomer, unassigned) [Example 1-24-1], the IC50 [1, 4] is reported as 4.58 µM, the IC50 [2] is reported as over 25 µM and the IC50 [3] is reported as 5.99 µM.

Compound C=CC(=O)N1CC2(C[C@@H](CO)N(c3nc4c(c(N[C@H](CC(=O)NC)CC(C)C)n3)CCCC4)C2)C1 (single isomer, unassigned) [Example 1-24-2] has an IC50 [1, 4] of 59.1 µM, an IC50 [2] of over 25 µM and an IC50 [3] of over 25 µM.

C=CC(=O)N1CC2(CCN(c3nc4c(c(N[C@H](CC(=O)NC)CC(C)C)n3)CCCC4)C2)C1 [Example 1-1, (S)-3-((2-(2-acryloyl-2,6-diazaspiro[3.4]octan-6-yl)-5,6,7,8-tetrahydroquinazolin-4-yl)amino)-N,5-dimethylhexanamide] showed an IC50 [1, 4] of 0.702 µM, an IC50 [2] of over 25 µM and an IC50 [3] of 0.887 µM.

C=CC(=O)N1CC2(C1)CN(c1nc3c(c(N[C@H](CC(=O)NC)CC(C)C)n1)CCC(C)C3)CC2(F)F (stereo partly drawn) [Example 1-2, (3S)-3-((2-(8,8-difluoro-2-(2-propenoyl)-2,6-diazaspiro[3.4]octan-6-yl)-7-methyl-5,6,7,8-tetrahydro-4-quinazolinyl)amino)-N,5-dimethylhexanamide] showed an IC50 [1, 4] of 0.019 µM, an IC50 [2] of 15.1 µM and an IC50 [3] of 0.047 µM.

With C=CC(=O)N1CC2(CCN(c3nc4c(c(N[C@H](CC(=O)NC)CC(C)C)n3)CCC(C)C4)C2)C1 (stereo partly drawn) [Example 1-3, (3S)-N,5-dimethyl-3-((7-methyl-2-(2-(2-propenoyl)-2,6-diazaspiro[3.4]octan-6-yl)-5,6,7,8-tetrahydro-4-quinazolinyl)amino)hexanamide] the IC50 [1, 4] was 0.216 µM, the IC50 [2] was 32.6 µM and the IC50 [3] was 0.217 µM.

C=CC(=O)N1CC2(CCN(c3nc4c(c(N[C@H](CC(=O)NC)CC(C)C)n3)CCC4)C2)C1 [Example 1-4, (3S)-N,5-dimethyl-3-((2-(2-(2-propenoyl)-2,6-diazaspiro[3.4]octan-6-yl)-6,7-dihydro-5H-cyclopenta[d]pyrimidin-4-yl)amino)hexanamide] showed an IC50 [1, 4] of 2.37 µM, an IC50 [2] of over 5 µM and an IC50 [3] of 2.59 µM.

With C=CC(=O)N1CC2(CCN(c3nc(N[C@H](CC(=O)NC)CC(C)C)c4ccccc4n3)C2)C1 [Example 1-5, (3S)-N,5-dimethyl-3-((2-(2-(2-propenoyl)-2,6-diazaspiro[3.4]octan-6-yl)-4-quinazolinyl)amino)hexanamide] the IC50 [1, 4] was 1.1 µM, the IC50 [2] was 18.4 µM and the IC50 [3] was 1.23 µM.

C=CC(=O)N1CC2(CCN(c3cc4ccccc4c(N[C@H](CC(=O)NC)CC(C)C)n3)C2)C1 [Example 1-6, (3S)-N,5-dimethyl-3-((3-(2-(2-propenoyl)-2,6-diazaspiro[3.4]octan-6-yl)-1-isoquinolinyl)amino)hexanamide] gave an IC50 [1, 5] of 0.424 µM, an IC50 [2] of over 25 µM and an IC50 [3] of 8.21 µM.

C=CC(=O)N1CC2(CCN(c3nc(N[C@H](CC(=O)NC)CC(C)C)c4occc4n3)C2)C1 [Example 1-7, (3S)-N,5-dimethyl-3-((2-(2-(2-propenoyl)-2,6-diazaspiro[3.4]octan-6-yl)furo[3,2-d]pyrimidin-4-yl)amino)hexanamide] was tested, and the IC50 [1, 5] was 0.494 µM, the IC50 [2] was over 5 µM and the IC50 [3] was 58.1 µM.

For C=CC(=O)N1CC2(CCN(c3nc(N[C@H](CC(=O)NC)CC(C)C)c4c(n3)[C@H](C)CCC4)C2)C1 [Example 1-8, (3S)-N,5-dimethyl-3-(((8R)-8-methyl-2-(2-(2-propenoyl)-2,6-diazaspiro[3.4]octan-6-yl)-5,6,7,8-tetrahydro-4-quinazolinyl)amino)hexanamide], the IC50 [1, 4] was 1.1 µM, the IC50 [2] was over 5 µM and the IC50 [3] was 1 µM.

With C=CC(=O)N1CC2(CCN(c3nc4c(c(N[C@H](CC(=O)NC)CC(C)C)n3)CN(C(C)=O)C4)C2)C1 [Example 1-9, (3S)-3-((6-acetyl-2-(2-(2-propenoyl)-2,6-diazaspiro[3.4]octan-6-yl)-6,7-dihydro-5H-pyrrolo[3,4-d]pyrimidin-4-yl)amino)-N,5-dimethylhexanamide] the IC50 [1, 5] was 0.472 µM, the IC50 [2] was over 5 µM and the IC50 [3] was over 5 µM.

In the case of C=CC(=O)N1CC2(CCN(c3nc(N[C@H](CC(=O)NC)CC(C)C)c4nn(C)cc4n3)C2)C1 [Example 1-10, (3S)-N,5-dimethyl-3-((2-methyl-5-(2-(2-propenoyl)-2,6-diazaspiro[3.4]octan-6-yl)-2H-pyrazolo[4,3-d]pyrimidin-7-yl)amino)hexanamide], the IC50 [1, 4] is reported as 0.916 µM, the IC50 [2] is reported as over 25 µM and the IC50 [3] is reported as 3.63 µM.

C=CC(=O)N1CC2(CCN(c3nc(N[C@H](CC(=O)NC)CC(C)C)c4ncsc4n3)C2)C1 [Example 1-11, (3S)-N,5-dimethyl-3-((5-(2-(2-propenoyl)-2,6-diazaspiro[3.4]octan-6-yl)[1,3]thiazolo[5,4-d]pyrimidin-7-yl)amino)hexanamide] showed an IC50 [1, 5] of 0.395 µM, an IC50 [2] of over 5 µM and an IC50 [3] of over 5 µM.

With C=CC(=O)N1CC2(CCN(c3nc4c(c(N[C@H](CC5=NC(C)(C)C(=O)N5)CC(C)C)n3)CCCC4)C2)C1 [Example 1-12, 5,5-dimethyl-2-((2S)-4-methyl-2-((2-(2-(2-propenoyl)-2,6-diazaspiro[3.4]octan-6-yl)-5,6,7,8-tetrahydro-4-quinazolinyl)amino)pentyl)-3,5-dihydro-4H-imidazol-4-one] the IC50 [1, 4] was 3.93 µM, the IC50 [2] was over 25 µM and the IC50 [3] was 10.5 µM.

In the case of C=CC(=O)N1CC2(CCN(c3nc4c(c(N[C@H](CC(=O)NC)CC(C)C)n3)COC4)C2)C1 [Example 1-13, (3S)-N,5-dimethyl-3-((2-(2-(2-propenoyl)-2,6-diazaspiro[3.4]octan-6-yl)-5,7-dihydrofuro[3,4-d]pyrimidin-4-yl)amino)hexanamide], the IC50 [1, 5] is reported as 5.85 µM, the IC50 [2] is reported as over 5 µM and the IC50 [3] is reported as over 5 µM.

For C=CC(=O)N1CC2(CCN(c3nc(N[C@H](CC(=O)NC)CC(C)C)c4c(ncn4C)n3)C2)C1 [Example 1-14, (3S)-N,5-dimethyl-3-((7-methyl-2-(2-(2-propenoyl)-2,6-diazaspiro[3.4]octan-6-yl)-7H-purin-6-yl)amino)hexanamide], the IC50 [1, 4] was 196 µM, the IC50 [2] was over 25 µM and the IC50 [3] was over 25 µM.

C=CC(=O)N1CC2(CCN(c3nc4c(c(N[C@H](CC(=O)NC)CC(C)C)n3)CCC(C)(C)C4)C2)C1 [Example 1-29, (3S)-3-((7,7-dimethyl-2-(2-(2-propenoyl)-2,6-diazaspiro[3.4]octan-6-yl)-5,6,7,8-tetrahydro-4-quinazolinyl)amino)-N,5-dimethylhexanamide] showed an IC50 [2] of over 25 µM and an IC50 [3] of 0.031 µM.

Work on C=CC(=O)N1CC2(CCN(c3nc4c(c(N[C@@H](CC(C)C)Cn5ccnn5)n3)CCC(C)(C)C4)C2)C1 [Example 1-47, 1-(6-(7,7-dimethyl-4-(((2S)-4-methyl-1-(1H-1,2,3-triazol-1-yl)-2-pentanyl)amino)-5,6,7,8-tetrahydro-2H-quinazolinyl)-2,6-diazaspiro[3.4]octan-2-yl)-2-propen-1-one] yielded an IC50 [2] of 14.1 µM and an IC50 [3] of 0.485 µM.
